Counter-ions that a name gives are not always drawn.
Legend:
[1] = Hydrolysis kinetics in aqueous buffer solution; format: physicochemical; conditions: about 37 °C
Method: (§1) The HPLC analysis was performed using LaChrom Merck Hitachi system that consists of a D-7000 interface, L-7200 diode array detector, pump L-7150 and D-7000HSM software (Schaumburg, IL, USA). The UV detector was set at 280 nm wave length. The HPLC column was an Agela unisol-C18, 5 micron 4.6 × 150. Mobile phase was 80% methanol, 20% water. To each litre, 2 mL acetic acid were added. The mobile phase was pumped at flow rate 1.5 mL/min. The retention times were: 5.17 min 6.19 min and 7.15 min for 2-hydroxyethyldiclofenac, diclofenac sodium and the morpholine prodrug, respectively (Figure 2). The analytical method was fully validated.
The prodrug under investigation was incubated in 0.1 N HCl (pH 1.0) and phosphate buffer (pH 7.4). The formed solutions were kept in a shaking water bath at about 37 °C for eight h. At appropriate intervals, samples (100 µL) were analyzed using the HPLC method described earlier.

[2] = Hydrolysis kinetics in human plasma; format: in vitro ADME; conditions: 37 ± 0.3 °C
Method: as §1
The prodrug under investigations was incubated in human plasma using a shaking water bath, which was set at 37 ± 0.3 °C. An amount of 25 µL of 1.0 mg/mL stock solution of the prodrug under investigation was added to 5 mL of the incubated plasma. At appropriate time points, samples of 100 μL were withdrawn and deproteinized by adding equal volumes of acetonitrile. The formed mixture was mixed on a vortex then centrifuge at 2,500 rpm for 10 min. The clear supernatant was analyzed using the HPLC method.

stomach (mucosal damage) = experiment: In vivo ulcerogenicity study in rats; set-up: species or system male Sprauge-Dawley rats; conditions: for number of lesions / ulcer score: single equimolar dose (diclofenac sodium 100 mg/kg, prodrug 140 mg/kg); for number of lesions: average, for the prodrug punctiform lesions; for ulcer score: sacrificed after 17 h
Method: The ulceroginicity of diclofenac sodium and its prepared prodrug 2 were evaluated. Three groups (six animals each) of male Sprauge-Dawley rats (150–200 gm) were fasted for 8 h prior to administration of single equimolar doses of diclofenac sodium (100 mg/kg), its prodrug (140 mg/kg), or vehicle. Free access to food and water were provided throughout the experiment. […] The stomach of the rats was dissected out of the body, and stomach content was emptied and washed with saline. The stomach was then opened and wiped with a clean swap dipped in saline. The degree of mucosal damage was assessed using a 4× binocular magnifier. The severity of the damage was assessed according to a scoring system where the presence of <5 punctiforms with no ulcers was given the score of zero. A punctiform was defined as a lesion of less than 1 mm. If >5 punctiforms were present with no ulcer, a score of 1 was given. If 1–5 small ulcers (1–2 mm in diameter) were observed, a score of 2 was given. If >5 small ulcers or one large ulcer (>2 mm in diameter) was present, a score of […] was given. If >1 large ulcer was observed, a score of 4 was given. The scores were averaged and the mean score was tabulated as ulcerogenicity index for the drugs under investigation.

| Structure (SMILES) | half-life ([1]; pH 1 (0.1 N HCl)) | half-life ([1]; pH 7.4 (phosphate buffer)) | half-life at 5 µg/mL [2] | number of lesions (stomach (mucosal damage); 17 h) | ulcer score (stomach (mucosal damage)) | lesions larger than 2 mm (stomach (mucosal damage); single dose diclofenac sodium 100 mg/kg, 17 h) |
| --- | --- | --- | --- | --- | --- | --- |
| O=C(Cc1ccccc1Nc1c(Cl)cccc1Cl)OCCOC(=O)N1CCOCC1 [Compound 2] | 8 h | 47 h | 0.35 h | less than five | zero | – |
| O=C(O)Cc1ccccc1Nc1c(Cl)cccc1Cl [Compound 1, 2-[(2,6-dichloro-phenyl])amino]benzeneacetic acid sodium salt] | – | – | – | 82 | four | six |

— paper PMC4014702, “Synthesis, In Vitro and In Vivo Evaluation of the N-ethoxycarbonylmorpholine Ester of Diclofenac as a Prodrug” (Pharmaceuticals, 2014)
